Key:
[1] = biological target: T1, Rat Striatal Nicotinic Receptors ([^3H]MLA binding sites; α7) (Rattus norvegicus, UniProt Q05941); assay: Inhibition of [^3H]MLA (methyllycaconitine) binding; conditions: full concentration effect; [^3H]MLA; nonspecific S-nicotine; rat brain membranes; read-out: [^3H]MLA binding, Ki
T1 construct: Whole brain, excluding cortex and cerebellum, was homogenized in 20 vol of ice-cold buffer; from tissue; host or cells: rat brain membranes (whole brain excluding cortex and cerebellum)
Outline: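 Rat brain membranes were washed by repeated centrifugation at 25,000 g, with a 10 min incubation at 37° C. in between. Samples of 250 μl, containing 100-140 μg of membrane protein, 3 nM [^3H]-methyllycaconitine and test analog in 50 mM Tris assay buffer, were incubated in 96-well plates for 60 min at room temperature. Nonspecific binding was defined with 10 μM S-nicotine. Bound radioactivity was collected on polyethylenimine-soaked GF/B filter plates and counted on a TopCount.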

[2] = test system: nicotinic receptors mediating S-nicotine-evoked [^3H]DA release in rat striatal slices; assay: Inhibition of S-nicotine-evoked [^3H]dopamine release from superfused rat striatal slices; format: cell-based; conditions: 1 h; 100 nM analog superfused 60 min before NIC 10 μM; rat striatal slices; read-out: [^3H]DA release, % inhibition of S-nicotine-evoked release
Outline: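 Superfused rat striatal slices preloaded with 0.1 μM [3H]DA, in Krebs buffer with nomifensine and pargyline (10 μM each), 34 °C. Analogs (100 nM) given 60 min before 10 μM S-nicotine; tritium overflow by scintillation, inhibition expressed as percent of nicotine-evoked overflow without analog; full concentration-effect curves where […] given.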

[3] = biological target: T2, Rat Striatal Nicotinic Receptors ([^3H]NIC binding sites; α4β2) (Rattus norvegicus, UniProt P09483+P12390); assay: Inhibition of [^3H]NIC binding; conditions: full concentration effect; 3 nM [^3H]NIC; nonspecific 10 μM cytisine; rat brain membranes; read-out: [^3H]NIC binding, Ki
T2 construct: Whole brain, excluding cortex and cerebellum, was homogenized in 20 vol of ice-cold buffer; from tissue; host or cells: rat brain membranes (whole brain excluding cortex and cerebellum)
T2 sequence (P09483 31-630): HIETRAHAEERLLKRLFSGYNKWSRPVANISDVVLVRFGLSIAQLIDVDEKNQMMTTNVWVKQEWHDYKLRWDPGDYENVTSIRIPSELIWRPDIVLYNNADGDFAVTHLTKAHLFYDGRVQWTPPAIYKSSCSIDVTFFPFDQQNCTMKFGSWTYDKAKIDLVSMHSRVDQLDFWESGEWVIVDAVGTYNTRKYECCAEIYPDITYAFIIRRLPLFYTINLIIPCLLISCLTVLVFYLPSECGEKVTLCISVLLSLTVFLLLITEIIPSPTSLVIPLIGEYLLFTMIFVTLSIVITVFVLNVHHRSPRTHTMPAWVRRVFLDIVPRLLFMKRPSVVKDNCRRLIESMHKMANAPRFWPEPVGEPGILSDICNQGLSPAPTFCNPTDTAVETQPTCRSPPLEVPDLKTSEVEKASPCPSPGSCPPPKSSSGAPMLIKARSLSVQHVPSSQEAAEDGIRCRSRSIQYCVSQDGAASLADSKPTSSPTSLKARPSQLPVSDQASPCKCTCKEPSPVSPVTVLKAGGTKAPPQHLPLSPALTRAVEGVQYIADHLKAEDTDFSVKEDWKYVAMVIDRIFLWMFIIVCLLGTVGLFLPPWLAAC
T2 sequence (P12390 25-500): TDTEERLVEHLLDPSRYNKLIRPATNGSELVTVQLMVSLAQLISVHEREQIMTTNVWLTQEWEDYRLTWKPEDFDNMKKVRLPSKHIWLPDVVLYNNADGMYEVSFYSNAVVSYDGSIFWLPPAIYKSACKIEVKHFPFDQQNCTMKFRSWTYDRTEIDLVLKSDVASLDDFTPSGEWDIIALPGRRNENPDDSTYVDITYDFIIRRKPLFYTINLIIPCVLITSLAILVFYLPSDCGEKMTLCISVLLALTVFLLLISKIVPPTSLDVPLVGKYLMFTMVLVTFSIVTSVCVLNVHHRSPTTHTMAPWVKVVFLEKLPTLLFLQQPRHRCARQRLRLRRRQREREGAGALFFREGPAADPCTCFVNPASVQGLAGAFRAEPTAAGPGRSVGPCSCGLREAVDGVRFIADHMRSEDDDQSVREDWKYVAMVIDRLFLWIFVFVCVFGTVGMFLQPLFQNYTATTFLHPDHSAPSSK

T1 sequence (Q05941 23-502): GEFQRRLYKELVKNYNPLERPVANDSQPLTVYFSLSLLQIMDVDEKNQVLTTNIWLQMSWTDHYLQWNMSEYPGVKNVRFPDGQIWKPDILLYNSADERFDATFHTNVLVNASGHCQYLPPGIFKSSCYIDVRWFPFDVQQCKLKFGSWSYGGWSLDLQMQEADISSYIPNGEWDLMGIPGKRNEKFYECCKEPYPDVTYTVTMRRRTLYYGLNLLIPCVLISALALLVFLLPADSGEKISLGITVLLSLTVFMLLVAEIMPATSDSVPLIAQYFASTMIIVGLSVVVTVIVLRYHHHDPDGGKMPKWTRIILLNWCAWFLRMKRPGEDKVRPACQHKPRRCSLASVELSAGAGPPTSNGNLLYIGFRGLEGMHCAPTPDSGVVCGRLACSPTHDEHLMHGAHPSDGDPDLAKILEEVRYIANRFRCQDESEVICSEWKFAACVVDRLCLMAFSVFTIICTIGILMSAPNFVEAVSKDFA

SMILES | Ki [1] | inhibition at 0.1 µM [2] | Ki [3]
Cc1ccc[n+](CCC#Cc2ccc(C#CCC[n+]3cccc(C)c3)cc2)c1 [Example 97, N,N′-[(1,4-phenylene)-bis-(4-butynyl)]-bis-(3-methyl-pyridinium)dibromide] | > 100 µM | 21% | 2.75 ± 0.4 µM
Cc1cc[n+](CCC#Cc2ccc(C#CCC[n+]3ccc(C)cc3)cc2)cc1 [Example 98, N,N′-[(1,4-phenylene)-bis-(4-butynyl)]-bis-(4-methyl-pyridinium)dibromide] | > 100 µM | 29% | 8.5 µM
C(#Cc1ccc(C#CCC[n+]2ccc3c(c2)CCCC3)cc1)CC[n+]1ccc2c(c1)CCCC2 [Example 99, N,N′-[(1,4-phenylene)-bis-(4-butynyl)]-bis-(5,6,7,8-tetrahydroisoquiolinium)dibromide] | 0.87 µM | 14% | 8.04 µM

— patent US8178678B2, “Bis-quaternary ammonium salts and methods for modulating neuronal nicotinic acetylcholine receptors” (University of Kentucky Research Foundation, priority 2006, dated 2012)
